Experimental data: patent EP4293019A1, “4-SUBSTITUTED (1H-BENZO[D]IMIDAZOL-2-YL)-1H-PYRAZOLES AS BUB1 INHIBITORS USEFUL FOR TREATING CANCERS” (Netherlands Translational Research Center Holding B.V., priority 2022, dated 2023)
Where a name gives a salt, the structure may show the parent alone.

Biological target: T1, hBUB1 (Homo sapiens, UniProt O43683)
T1 construct: purchased Carna Biosciences 05-187
Assay: hBUB1 kinase activity assay (biochemical fluorescence polarization assay, IMAP)
Details: BUB1/BUB3 3.26 nM, ATP 15 µM, BUB1/BUB3 substrate 75 nM, N=2, n=2; for IC50: read-out: hBUB1 pIC50 (converted)
Protocol: This protocol describes how the Kinase Activity Assay was performed to determine pIC50 values of compounds of general formula (I) against hBUB1.
Assays were performed in 384-well plates (Greiner, black, flat bottom, 781076) by sequential addition (final concentrations are indicated) of inhibitor (5 µL, 0.3 nM - 1 µM or 3 nM - 10 µM), BUB1/BUB3 (5 µL, 3.26 nM, Carna Biosciences (05-187), lot: 15CBS-0644 D), ATP (5 µL, 15 µM) and BUB1/BUB3 substrate (5 µL, 75 nM, Carna Biosciences (05-187MSSU)), all as 4x working solutions. The final concentration of DMSO was 1%. Assay reactions were stopped by addition of IMAP progressive binding reagent (20 µL, 1200x diluted, Molecular Devices (R8155), lot: 3117896). Each assay included the following controls: (i) a background control (treated with vehicle instead of inhibitor and BUB1/BUB3 substrate), (ii) MIN controls (treated with 5 µM BAY1816032 (MedChem Express) as inhibitor, used as 0% BUB1 activity) and (iii) MAX controls (treated with vehicle instead of inhibitor, used as 100% BUB1 activity). All inhibitors were tested in two separate assays and all inhibitor concentrations were tested in duplicate per assay (N=2, n=2).
For each assay, assay buffer (AB) was freshly prepared and consisted of 20 mM HEPES (prepared by diluting 1 M HEPES, pH 7.2), 5 mM MgCl2, 0.01% Tween-20 and 1 mM DTT. Stocks of inhibitors (in DMSO) were diluted in AB to obtain 4x working solutions (4% DMSO) and 5 µL was added to the assay plate. BUB1/BUB3 (3.26 µM (486 µg/mL) in storage buffer) was diluted in AB to obtain 13.0 nM of which 5 µL was added to all wells of the assay plate. The assay plate was centrifuged (1 min, 200 g) and incubated at RT for 30 min. ATP (4 mM in MilliQ) was diluted in AB to obtain 60 µM of which 5 µL was added to each well. BUB1/BUB3 substrate (1 mM) was diluted in 20 mM HEPES (prepared by diluting 1 M HEPES (pH 7.2) in MilliQ) to obtain 80 µM (this solution was freshly prepared every assay) and further diluted in AB to obtain 300 nM after which 5 µL was added to each well of the assay plate except for background control wells. The assay plate was centrifuged (1 min, 200 g) and incubated at RT in the dark for 180 min. IMAP progressive binding buffer A (5x) and IMAP progressive binding buffer B (5x) were mixed in a ratio to obtain 30% buffer A and 70% buffer B, which was subsequently diluted 5x in MilliQ. IMAP progressive binding reagent was diluted 600x in aforementioned mixture of buffer A and B (to obtain a 2x working solution) of which 20 µL was added to each well of the assay plate. The assay plate was centrifuged (1 min, 200 g) and incubated at RT in the dark for 90 min. Fluorescence polarization was measured on a CLARIOstar plate reader using the following settings: (i) optic settings → excitation = F: 482-16, dichroic = F: LP 504, emission = F: 530-40, (ii) optic = top optic, (iii) speed/precision = maximum precision, (iv) focus adjustment was performed for every assay and (v) gain adjustment was done by setting the target mP value to 35 mP for one of the MIN control wells. Data was normalized between MIN and MAX controls and data was plotted using GraphPad Prism 8.0 using "Nonlinear regression (curve fit)" and "log(inhibitor) vs. normalized response - Variable slope" to determine pIC50 values.
Inhibition is indicated as pIC50 ("-" = not measured). Compounds having an activity designated as "A" provided an pIC50 ≥ 7.0 (IC50 ≤100 nM); compounds having an activity designated as "B" provided an 6.3 ≤ pIC50 < 7.0 (100 nM<IC50 ≤ 500 nM); compounds having an activity designated as "C" provided an 6.0 ≤ pIC50 < 6.3 (500 nM < IC50 ≤ 1 µM); compounds having an activity designated as "D" provided an 6.0 < pIC50 ≤ 5.0 (1 µM < IC50 ≤ 10 µM); and compounds having an activity designated as "E" provided an pIC50 < 5.0 (IC50 >10 µM).

T1 sequence (O43683 whole entry): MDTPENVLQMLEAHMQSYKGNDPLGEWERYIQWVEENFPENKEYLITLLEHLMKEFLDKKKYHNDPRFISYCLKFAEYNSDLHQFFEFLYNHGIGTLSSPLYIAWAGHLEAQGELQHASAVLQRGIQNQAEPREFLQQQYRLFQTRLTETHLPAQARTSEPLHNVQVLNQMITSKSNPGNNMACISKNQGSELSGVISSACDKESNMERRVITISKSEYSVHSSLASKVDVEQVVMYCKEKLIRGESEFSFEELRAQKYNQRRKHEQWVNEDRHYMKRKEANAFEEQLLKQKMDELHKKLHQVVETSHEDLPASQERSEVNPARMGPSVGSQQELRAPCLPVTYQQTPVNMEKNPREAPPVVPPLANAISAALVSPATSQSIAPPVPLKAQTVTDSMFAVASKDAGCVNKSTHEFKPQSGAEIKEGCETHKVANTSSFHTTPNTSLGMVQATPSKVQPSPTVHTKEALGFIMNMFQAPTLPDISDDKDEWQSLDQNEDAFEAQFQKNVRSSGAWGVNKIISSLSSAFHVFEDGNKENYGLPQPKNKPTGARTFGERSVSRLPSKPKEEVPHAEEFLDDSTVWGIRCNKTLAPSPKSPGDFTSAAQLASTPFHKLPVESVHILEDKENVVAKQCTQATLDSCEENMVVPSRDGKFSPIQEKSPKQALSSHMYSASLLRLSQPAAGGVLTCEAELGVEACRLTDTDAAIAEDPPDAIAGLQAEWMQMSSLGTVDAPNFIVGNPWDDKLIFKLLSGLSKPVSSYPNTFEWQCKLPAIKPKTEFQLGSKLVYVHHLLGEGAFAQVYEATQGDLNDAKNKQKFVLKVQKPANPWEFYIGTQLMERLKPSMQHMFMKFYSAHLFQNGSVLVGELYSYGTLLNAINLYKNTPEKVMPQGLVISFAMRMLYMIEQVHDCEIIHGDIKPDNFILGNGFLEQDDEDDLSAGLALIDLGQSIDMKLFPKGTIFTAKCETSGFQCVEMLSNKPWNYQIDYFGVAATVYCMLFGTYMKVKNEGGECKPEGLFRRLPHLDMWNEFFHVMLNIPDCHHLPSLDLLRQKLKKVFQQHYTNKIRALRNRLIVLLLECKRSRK
T1 sequence (O43684 whole entry partner): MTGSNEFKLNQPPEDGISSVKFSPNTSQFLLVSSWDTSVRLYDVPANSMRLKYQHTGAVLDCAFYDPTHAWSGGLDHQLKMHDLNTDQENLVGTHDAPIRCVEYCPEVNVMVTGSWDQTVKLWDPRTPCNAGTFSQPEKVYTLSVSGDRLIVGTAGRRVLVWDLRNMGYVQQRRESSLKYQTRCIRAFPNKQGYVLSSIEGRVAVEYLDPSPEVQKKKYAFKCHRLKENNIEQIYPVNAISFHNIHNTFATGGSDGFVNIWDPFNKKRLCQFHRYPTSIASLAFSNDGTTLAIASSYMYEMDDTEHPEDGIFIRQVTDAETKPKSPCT

In the case of Clc1ccccc1-c1nccc(Nc2c[nH]nc2-c2nc3ccccc3[nH]2)n1 [Compound 25, N-(3-(1H-Benzo[d]imidazol-2-yl)-1H-pyrazol-4-yl)-2-(2-chlorophenyl)pyrimidin-4-amine], the IC50 is reported as 501 to 1000 nM.

Cc1ccc(-c2nccc(Nc3c[nH]nc3-c3nc4ccccc4[nH]3)n2)cc1 [Compound 32, N-(3-(1H-Benzo[d]imidazol-2-yl)-1H-pyrazol-4-yl)-2-(p-tolyl)pyrimidin-4-amine] was tested, and the “hBUB1 pIC50” value was “D (6.0 < pIC50 ≤ 5.0 (1 µM < IC50 ≤ 10 µM))”.

c1ccc(-c2nccc(Nc3c[nH]nc3-c3nc4ccccc4[nH]3)n2)cc1 [Compound 23, N-(3-(1H-benzo[d]imidazol-2-yl)-1H-pyrazol-4-yl)-2-phenylpyrimidin-4-amine] was tested, and the “hBUB1 pIC50” value was “D (6.0 < pIC50 ≤ 5.0 (1 µM < IC50 ≤ 10 µM))”.

For Cc1ccccc1-c1nccc(Nc2c[nH]nc2-c2nc3ccccc3[nH]2)n1 [Compound 24, N-(3-(1H-benzo[d]imidazol-2-yl)-1H-pyrazol-4-yl)-2-(o-tolyl)pyrimidin-4-amine], the “hBUB1 pIC50” value was “D (6.0 < pIC50 ≤ 5.0 (1 µM < IC50 ≤ 10 µM))”.

For COc1ccccc1-c1nccc(Nc2c[nH]nc2-c2nc3ccccc3[nH]2)n1 [Compound 26, N-(3-(1H-Benzo[d]imidazol-2-yl)-1H-pyrazol-4-yl)-2-(2-methoxyphenyl)pyrimidin-4-amine], the “hBUB1 pIC50” value was “D (6.0 < pIC50 ≤ 5.0 (1 µM < IC50 ≤ 10 µM))”.

With Cc1cccc(-c2nccc(Nc3c[nH]nc3-c3nc4ccccc4[nH]3)n2)c1 [Compound 27, N-(3-(1H-Benzo[d]imidazol-2-yl)-1H-pyrazol-4-yl)-2-(m-tolyl)pyrimidin-4-amine] the IC50 was 100 to 501 nM.

COc1ccc(-c2nccc(Nc3c[nH]nc3-c3nc4ccccc4[nH]3)n2)cc1 [Compound 34, N-(3-(1H-Benzo[d]imidazol-2-yl)-1H-pyrazol-4-yl)-2-(4-methoxyphenyl)pyrimidin-4-amine] was tested, and the “hBUB1 pIC50” value was “D (6.0 < pIC50 ≤ 5.0 (1 µM < IC50 ≤ 10 µM))”.

In the case of c1ccc2[nH]c(-c3n[nH]cc3Nc3ccnc(-c4cccc5[nH]ncc45)n3)nc2c1 [Compound 38, N-(3-(1H-Benzo[d]imidazol-2-yl)-1H-pyrazol-4-yl)-2-(1H-indazol-4-yl)pyrimidin-4-amine], the “hBUB1 pIC50” value is reported as “D (6.0 < pIC50 ≤ 5.0 (1 µM < IC50 ≤ 10 µM))”.

c1ccc(CCOc2nccc(Nc3c[nH]nc3-c3nc4cc(CN5CCOCC5)ccc4[nH]3)n2)cc1 [Compound 19, N-(3-(5-(morpholinomethyl)-1H-benzo[d]imidazol-2-yl)-1H-pyrazol-4-yl)-2-phenethoxypyrimidin-4-amine] showed an IC50 of 501 to 1000 nM.

For Clc1ccc(Oc2nccc(Nc3c[nH]nc3-c3nc4cc(CN5CCOCC5)ccc4[nH]3)n2)cc1 [Compound 50, 2-(4-Chlorophenoxy)-N-(3-(5-(morpholinomethyl)-1H-benzo[d]imidazol-2-yl)-1H-pyrazol-4-yl)pyrimidin-4-amine], the IC50 was 501 to 1000 nM.

Work on c1csc(-c2nccc(Nc3c[nH]nc3-c3nc4cc(CN5CCOCC5)ccc4[nH]3)n2)c1 [Compound 22, N-(3-(5-(morpholinomethyl)-1H-benzo[d]imidazol-2-yl)-1H-pyrazol-4-yl)-2-(thiophen-2-yl)pyrimidin-4-amine hydrochloride] yielded an IC50 of 501 to 1000 nM.

c1cc(Nc2c[nH]nc2-c2nc3cc(CN4CCOCC4)ccc3[nH]2)nc(-c2ccsc2)n1 [Compound 21, N-(3-(5-(morpholinomethyl)-1H-benzo[d]imidazol-2-yl)-1H-pyrazol-4-yl)-2-(thiophen-3-yl)pyrimidin-4-amine hydrochloride] was tested, and the IC50 was 501 to 1000 nM.

Clc1ccccc1Oc1nccc(Nc2c[nH]nc2-c2nc3cc(CN4CCOCC4)ccc3[nH]2)n1 [Compound 48, 2-(2-Chlorophenoxy)-N-(3-(5-(morpholinomethyl)-1H-benzo[d]imidazol-2-yl)-1H-pyrazol-4-yl)pyrimidin-4-amine] showed an IC50 of 501 to 1000 nM.

C#Cc1nccc(Nc2c[nH]nc2-c2nc3cc(CN4CCOCC4)ccc3[nH]2)n1 [Compound 15, 2-ethynyl-N-(3-(5-(morpholinomethyl)-1H-benzo[d]imidazol-2-yl)-1H-pyrazol-4-yl)pyrimidin-4-amine] showed an IC50 of 100 to 501 nM.

Clc1cccc(-c2nccc(Nc3c[nH]nc3-c3nc4ccccc4[nH]3)n2)c1 [Compound 28, N-(3-(1H-Benzo[d]imidazol-2-yl)-1H-pyrazol-4-yl)-2-(3-chlorophenyl)pyrimidin-4-amine] gave an IC50 of 100 to 501 nM.

With c1ccc2c(-c3nccc(Nc4c[nH]nc4-c4nc5ccccc5[nH]4)n3)cccc2c1 [Compound 36, N-(3-(1H-Benzo[d]imidazol-2-yl)-1H-pyrazol-4-yl)-2-(naphthalen-1-yl)pyrimidin-4-amine] the “hBUB1 pIC50” value was “D (6.0 < pIC50 ≤ 5.0 (1 µM < IC50 ≤ 10 µM))”.

With c1ccc2cc(-c3nccc(Nc4c[nH]nc4-c4nc5ccccc5[nH]4)n3)ccc2c1 [Compound 39, N-(3-(1H-Benzo[d]imidazol-2-yl)-1H-pyrazol-4-yl)-2-(naphthalen-2-yl)pyrimidin-4-amine] the “hBUB1 pIC50” value was “D (6.0 < pIC50 ≤ 5.0 (1 µM < IC50 ≤ 10 µM))”.

CC(C)c1cccc(-c2nccc(Nc3c[nH]nc3-c3nc4ccccc4[nH]3)n2)c1 [Compound 30, N-(3-(1H-Benzo[d]imidazol-2-yl)-1H-pyrazol-4-yl)-2-(3-isopropylphenyl)pyrimidin-4-amine] was tested, and the “hBUB1 pIC50” value was “D (6.0 < pIC50 ≤ 5.0 (1 µM < IC50 ≤ 10 µM))”.

With Clc1cccc(Oc2nccc(Nc3c[nH]nc3-c3nc4cc(CN5CCOCC5)ccc4[nH]3)n2)c1 [Compound 49, 2-(3-Chlorophenoxy)-N-(3-(5-(morpholinomethyl)-1H-benzo[d]imidazol-2-yl)-1H-pyrazol-4-yl)pyrimidin-4-amine] the IC50 was 501 to 1000 nM.

In the case of c1cc(-c2nccc(Nc3c[nH]nc3-c3nc4ccccc4[nH]3)n2)c2[nH]ccc2c1 [Compound 37, N-(3-(1H-Benzo[d]imidazol-2-yl)-1H-pyrazol-4-yl)-2-(1H-indol-7-yl)pyrimidin-4-amine], the IC50 is reported as over 10000 nM.

With c1cnn(-c2nccc(Nc3c[nH]nc3-c3nc4cc(CN5CCOCC5)ccc4[nH]3)n2)c1 [Compound 20, N-(3-(5-(Morpholinomethyl)-1H-benzo[d]imidazol-2-yl)-1H-pyrazol-4-yl)-2-(1H-pyrazol-1-yl)pyrimidin-4-amine] the IC50 was 501 to 1000 nM.

For COc1cccc(-c2nccc(Nc3c[nH]nc3-c3nc4ccccc4[nH]3)n2)c1 [Compound 29, N-(3-(1H-Benzo[d]imidazol-2-yl)-1H-pyrazol-4-yl)-2-(3-methoxyphenyl)pyrimidin-4-amine], the IC50 was 501 to 1000 nM.

In the case of Clc1ccc(-c2nccc(Nc3c[nH]nc3-c3nc4ccccc4[nH]3)n2)cc1 [Compound 33, N-(3-(1H-Benzo[d]imidazol-2-yl)-1H-pyrazol-4-yl)-2-(4-chlorophenyl)pyrimidin-4-amine], the “hBUB1 pIC50” value is reported as “D (6.0 < pIC50 ≤ 5.0 (1 µM < IC50 ≤ 10 µM))”.
